What was measured:
[1] = In vitro release of dapivirine from PU rods into liposome dispersions; type: physicochemical; settings: 5 mg/g PU rods
Experimental: It is believed that vaginally delivered lipophilic NNRTI's partition into the lipid bilayer of vaginal epithelial cells.^14,21 Therefore, additional release studies were performed using 100 nm liposome dispersions in pH 4.2 and pH 7.6 buffers as biorelevant sink conditions for 1 week. These pH conditions cover the pH range observed vaginally. Liposome dispersions were synthesized by dissolving egg PC in CHCl3 followed by solvent removal under vacuum. The dried egg PC cake was dispersed in either pH 4.2 (25 mM acetate buffer containing 0.02% sodium azide and osmolarity adjusted to 310 mOsm/kg with NaCl) or pH 7.6 (25 mM phosphate buffer containing 0.02% sodium azide and osmolarity adjusted to 310 mOsm/kg with NaCl) followed by extrusion through a 100 nm membrane (LiposoFast™, Avestin, Ottawa, Canada). The concentration of liposome was 10 mg/mL. Prior to conducting the release study, liposome dispersions were characterized for particle size and zeta potential in a Zetasizer (nano ZS90, Malvern Instruments, Malvern Worcestershire, UK). A third sink condition for comparison was 25:75 v/v i-prOH:water. Approximately 0.5 mm length segments of dapivirine loaded (5 mg/g) PU rods were incubated with 0.5 mL of sink solution in 37° C. water bath shaking at 64±2 rpm. Controls used were dapivirine loaded PU rods suspended with pH 4.2 and pH 7.6 buffers without liposomes and blank PU (no dapivirine) segments in liposome dispersions in pH 4.2 and pH 7.6 buffers. Sinks were replaced and quantified for dapivirine content at frequent time points. HPLC quantification of release in sink samples of liposome dispersions was performed after 1:1 dilution with i-prOH to disrupt the dispersion.

[2] = Stability of dapivirine under extrusion conditions (heating with LC/MS and NMR, DSC, extraction); type: physicochemical
Experimental: A series of experiments were conducted to confirm that dapivirine was stable in PU matrix in the extrusion process. First, the thermal stability of dapivirine at the extrusion temperature was examined and analyzed for its non-degradability as follows: dapivirine was heated at 185° C. isothermally for 2 h under air atmosphere and ^1H and ^13C NMR spectra were recorded (Mercury 400 MHz spectrometer, Varian) for the heated and unheated dapivirine. Furthermore, LC/MS analysis was performed on the heated sample and compared to non-heated controls. The MS instrumentation consisted of Micromass Quattro II Triple Quadruple Mass Spectrometer, Waters, Milford, Mass.
Second, a differential scanning calorimetric (DSC) scan was obtained on dapivirine from 25° C. to 230° C. at a heating rate of 10° C./min under air atmosphere with a flow rate of 40 mL/min (Model DSC821e, Mettler Toledo, Columbus, Ohio). To further confirm the stability of dapivirine in the presence of PU under extrusion conditions, DSC analyses were carried out for PU, dapivirine, and PU films loaded with dapivirine at a concentration of 200 mg/g. The high concentration of dapivirine was selected to enable detection of potential exothermic degradation peaks. The DSC spectrum was collected from 25° C. to 230° C. at the heating rate of 10° C./min as well as at an isothermal condition (175° C. for 10 minutes).
Finally, dapivirine was extracted and quantified from extruded rods and PU pellets (both SC and MM) prior to extrusion. The test samples (100 mg of ring segments or pellets) were dissolved in 2 mL of chloroform in a 50 mL centrifuge tube in triplicate followed by precipitation of the PU by addition of 25 mL of methanol using a volumetric flask. The polymer was separated by centrifugation (1600 RCF, 5 min) and the supernatant was quantified for dapivirine content by HPLC. The caps of the centrifuge tubes were closed tightly and wrapped with Teflon tape during the process to minimize evaporation. The efficiency of the extraction of dapivirine from the PU matrix using this method was determined by quantifying the extracted dapivirine content from controls of blank PU pellets (100 mg) to which known amount of dapivirine was added. The three controls used in triplicate were 1) 100 mg of PU pellets with 2 mg of dapivirine 2) 100 mg of PU pellets with 1 mg of dapivirine and 3) 100 mg of PU pellets with 0.25 mg of dapivirine. The mixtures of PU pellets and dapivirine were then subjected to the same precipitation process and dapivirine quantification as above. A linear calibration curve generated from standards of dapivirine in isopropanol (i-prOH) was utilized for quantification of dapivirine content from extracted samples.

- cumulative release over time ([1]; liposome dispersions, one week): linear relationship with time
- dapivirine release in buffer controls ([1]; pH 4.2 and pH 7.6 buffers without liposomes): below the detection limit
- release kinetics relative to 25:75 i-prOH:water sink (slopes of linear fits) ([1]; pH 4.2 liposome dispersion): 22 times
- release kinetics relative to 25:75 i-prOH:water sink (slopes of linear fits) ([1]; pH 7.6 liposome dispersion): 1.5 times
- degradation in DSC thermogram of dapivirine ([2]; 25° C. to 230° C., 10° C./min, air): no detectable degradation
- degradation of dapivirine (LC/MS and NMR, heated vs non-heated) ([2]; 185° C. isothermally for 2 h under air): no detectable degradation
- degradation of dapivirine in PU under extrusion conditions (DSC) ([2]; PU films loaded with 200 mg/g, ramp 25 to 230° C. and isothermal 175° C., extrusion 165 to 175° C.): no detectable degradation
- dapivirine content recovered from extruded rods vs SC or MM pellets prior to extrusion ([2]; extraction, HPLC, p value>0.05, unpaired t-test): not significantly different
- solubility of dapivirine in PU matrix ([2]; from absence of the 220° C. melting endotherm in DSC of PU films loaded at 200 mg/g): > 200 mg/g
SMILES: Cc1cc(C)c(Nc2ccnc(Nc3ccc(C#N)cc3)n2)c(C)c1 [dapivirine, 4-[[4-[(2,4,6-trimethylphenyl)amino]pyrimidin-2-yl]amino]benzonitrile]

Reference: US20110045076A1, “LINEAR ORDER RELEASE POLYMER” (priority 2008, published 2011)
